Measured values as given in US11944635B1, “Compositions and methods for treating epilepsy” (priority 2023, dated 2024).
“Also recorded” adds a separate entry of the source.

Assay: Hepatic markers (ALT, AST, ALP, GGT, total bilirubin) in the 5-week human study
Assay type: in vivo
Details: 5 weeks, versus placebo
Procedure: Each patient visited the laboratory 6 times in total. During each visit, a sample of venous blood was taken from forearm following an overnight fast and sample of urine was obtained. All blood and urine samples were analyzed in the same certified institutional biochemical laboratory, using the standard operating procedures.
Hepatic (ALT, AST, ALP, GGT, and total bilirubin) markers were also measured.
Moreover, these changes we <1 standard deviation and therefore viewed as not clinically meaningful. As noted earlier, >3 SD over normative values were classified as an AE.

With `C=C(C)[C@@H]1CCC(C)=C[C@H]1c1c(O)cc(CCCCC)cc1O` [CBD, 2-[(1R,6R)-6-Isopropenyl-3-methylcyclohex-2-en-1-yl]-5-pentylbenzene-1,3-diol] the “plasma alanine transaminase (ALT)” value was “remained effectively unchanged”, the “plasma alkaline phosphatase (ALP)” value was “remained effectively unchanged” and the plasma total bilirubin was “remained effectively unchanged”. The “plasma gamma-glutamyl transferase (GGT)” value (main effect of dose P=0.038) was “slightly higher; also recorded: remained effectively unchanged” and the “plasma aspartate transaminase (AST)” value (main effect of dose P=0.047) was “higher in the placebo condition; also recorded: remained effectively unchanged”.
